Experimental data as given in the supplement of paper PMC4862054.

Columns and labels:
Conditions in all cases: incubation time: 72 h
[1] = system: CAL-120; assay: normalised viability (% of control), CellTiter-Blue; higher = more viable cells (about 100 = DMSO control)
How it was run: (§1)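 Plates were quality-checked by Z'-factor and normalised to vehicle (100) and a positive kill control (0). The underlying assay incubated breast cancer cell lines for 72 h on 384-well plates with compound, then added 2.5 µl CellTiter-Blue for 2 h at 37 °C and read at 560/590 nm. The value is normalised viability at a single listed concentration of the series.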

[2] = system: HCC1143; assay: as above
How it was run: as §1

[3] = system: HCC1599; assay: as above
How it was run: as §1

[4] = system: MDA-MB-231; assay: as above
How it was run: as §1

[5] = system: MDA-MB-436; assay: as above
How it was run: as §1

[6] = system: MDA-MB-453; assay: as above
How it was run: as §1

[7] = system: MDA-MB-468; assay: as above
How it was run: as §1

[8] = system: SK-BR-3; assay: as above
How it was run: as §1

[9] = system: BT-474; assay: drug sensitivity score (DSS), CellTiter-Glo (DSS (AUC-based score)); higher = stronger drug effect (viability inhibition or cytotoxicity); extreme values may be limits of the assay
How it was run: (§2)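 Plates with 384 wells held compound at 5 concentrations in 10-fold steps over a 10,000-fold range specific to each compound. Breast cancer cell lines were added in 20 µl suspension and incubated 72 h, then read for CellTox Green and CellTiter-Glo signals, with each plate normalised to 0.1 % DMSO and a positive kill control. The drug sensitivity score is based on the area under the fitted dose-response curve.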

[10] = system: BT-549; assay: as above
How it was run: as §2

[11] = system: CAL-148; assay: as above
How it was run: as §2

[12] = system: CAL-85-1; assay: as above
How it was run: as §2

[13] = system: DU-4475; assay: as above
How it was run: as §2

[14] = system: HCC1143; assay: as above
How it was run: as §2

[15] = system: HCC1599; assay: as above
How it was run: as §2

[16] = system: HCC1937; assay: as above
How it was run: as §2

[17] = system: HDQ-P1; assay: as above
How it was run: as §2

[18] = system: Hs578T; assay: as above
How it was run: as §2

[19] = system: MCF-10A; assay: as above
How it was run: as §2

[20] = system: MDA-MB-231; assay: as above
How it was run: as §2

[21] = system: MDA-MB-436; assay: as above
How it was run: as §2

[22] = system: MDA-MB-453; assay: as above
How it was run: as §2

[23] = system: MDA-MB-468; assay: as above
How it was run: as §2

[24] = system: MFM-223; assay: as above
How it was run: as §2

COc1cc2c(Oc3ccc4[nH]c(C)cc4c3F)ncnc2cc1OCCCN1CCCC1 [Cediranib]
normalised viability [%]
Conditions | [1] | [2] | [3] | [4] | [5] | [6] | [7] | [8]
0.3 nM | – | – | – | – | – | 85.7 | – | –
1 nM | 117 | 128 | 101 | 84.7 | 85.6 | – | 92.5 | 100
3 nM | – | – | – | – | – | 97 | – | –
10 nM | – | – | – | – | – | 84.7 | – | –
100 nM | 110 | 120 | 114 | 83.7 | 92 | – | 89.7 | 95.7
1000 nM | 81.4 | 112 | 76.7 | 92 | 91.8 | – | 95.2 | 104

Conditions | drug sensitivity score
[9] | 0
[10] | 0
[11] | 0
[12] | 0
[13] | 0
[14] | 0
[15] | 0
[16] | 0
[17] | 0
[18] | 0
[19] | 0
[20] | 0
[21] | 0
[22] | 0
[23] | 0
[24] | 1.86

CC1=C(/C=C/C(C)=C/C=C/C(C)=C/C(=O)O)C(C)(C)CCC1 [Tretinoin]
normalised viability [%]
Conditions | [1] | [2] | [3] | [4] | [5] | [6] | [7] | [8]
3 nM | – | – | – | – | – | 121 | – | –
10 nM | 82.5 | 86.2 | 114 | 103 | 97.9 | – | 99 | 103
30 nM | – | – | – | – | – | 103 | – | –
100 nM | – | – | – | – | – | 105 | – | –
1000 nM | 81.2 | 89.3 | 77.4 | 104 | 81.6 | – | 117 | 66
10000 nM | 92.8 | 88.1 | 84.2 | 109 | 95.5 | – | 113 | 45

Conditions | drug sensitivity score
[9] | 0
[10] | 0
[11] | 2.48
[12] | 0
[13] | 0
[14] | 0
[15] | 0.765
[16] | 0
[17] | 0
[18] | 1.26
[19] | 4.05
[20] | 1.34
[21] | 0
[22] | 2.34
[23] | 2.13
[24] | 0

Nc1nc2[nH]cc(CCc3ccc(C(=O)N[C@@H](CCC(=O)O)C(=O)O)cc3)c2c(=O)[nH]1 [Pemetrexed]
normalised viability [%]
Conditions | [1] | [2] | [3] | [4] | [5] | [6] | [7] | [8]
3 nM | – | – | – | – | – | 128 | – | –
10 nM | 84.2 | 90.8 | 106 | 97.5 | 107 | – | 97.7 | 97.5
30 nM | – | – | – | – | – | 96 | – | –
100 nM | – | – | – | – | – | 114 | – | –
1000 nM | 77.4 | 77.4 | 80.2 | 98.9 | 75.3 | – | 71.9 | 59.2
10000 nM | 63.3 | 72.2 | 106 | 92.4 | 82.5 | – | 99.5 | 62.2

Conditions | drug sensitivity score
[9] | 9.78
[10] | 0
[11] | 0
[12] | 13.4
[13] | 0
[14] | 0
[15] | 0
[16] | 8.27
[17] | 2.5
[18] | 23.6
[19] | 0
[20] | 6.23
[21] | 5.36
[22] | 0
[23] | 1.37
[24] | 0

N#Cc1ccc(C(c2ccc(C#N)cc2)n2cncn2)cc1 [Letrozole]
normalised viability [%]
Conditions | [1] | [2] | [3] | [4] | [5] | [6] | [7] | [8]
3 nM | – | – | – | – | – | 105 | – | –
10 nM | 72.4 | 85.4 | 81.2 | 86.3 | 113 | – | 101 | 79.4
30 nM | – | – | – | – | – | 76.8 | – | –
100 nM | – | – | – | – | – | 93.1 | – | –
1000 nM | 86.6 | 90.7 | 70.7 | 87.8 | 96.1 | – | 115 | 103
10000 nM | 80.2 | 78.4 | 81.9 | 95.5 | 105 | – | 92.7 | 85.2

Conditions | drug sensitivity score
[9] | 0
[10] | 0
[11] | 0
[12] | 0
[13] | 0
[14] | 0
[15] | 0
[16] | 0
[17] | 0
[18] | 0
[19] | 0
[20] | 0
[21] | 0
[22] | 0
[23] | 0
[24] | 0

Nc1nc(F)nc2c1ncn2[C@@H]1O[C@H](CO)[C@@H](O)[C@@H]1O [Fludarabine]
normalised viability [%]
Conditions | [1] | [2] | [3] | [4] | [5] | [6] | [7] | [8]
3 nM | – | – | – | – | – | 113 | – | –
10 nM | 82.3 | 75.8 | 102 | 90.9 | 89 | – | 98.8 | 98.6
30 nM | – | – | – | – | – | 112 | – | –
100 nM | – | – | – | – | – | 103 | – | –
1000 nM | 78.5 | 80 | 82.6 | 89.9 | 81.2 | – | 112 | 93.3
10000 nM | 81.5 | 55.9 | 89.5 | 81.1 | 78.4 | – | 98.9 | 77.8

Conditions | drug sensitivity score
[9] | 0
[10] | 0.896
[11] | 0
[12] | 0.486
[13] | 0
[14] | 0
[15] | 0
[16] | 0
[17] | 0
[18] | 0
[19] | 0
[20] | 0
[21] | 1.1
[22] | 0
[23] | 0
[24] | 0
